From US20190031618A1, “BENZIMIDAZOLE DERIVATIVES USEFUL AS CB-1 INVERSE AGONISTS” (Janssen Pharmaceutica NV, priority 2015, published 2019)
“And” between values parts separate entries of the source, which are not always exact repeats. Equal entries are not always repeated.

Assay: Five-Day Study in DIO Mice: plasma and brain compound levels
Details: mouse, in vivo, 30 mg/kg

CCc1nc2ccc(C(c3ccc(Cl)cc3)c3ccc(Cl)cc3)cc2n1C1CCN(S(=O)(=O)C(F)(F)F)CC1 [Example 328]
concentration at 2 h: 8360 ng/mL and 291 ng/g
